Source: US20220332799A1, “HERV INHIBITORS FOR USE IN TREATING TAUOPATHIES” (Deutsches Zentrum Für Neurodegenerative Erkrankungen E.V. …, priority 2019, published 2022)
“Also recorded” adds a separate entry of the source. Where two headings read alike, the source gives them in different places.

Columns and labels:
[1] = system: MuERV Env and Gag; assay type: cell-based, mouse
Description: (§1) To inhibit methyltransferases, s2E P1 donor cells were treated for three days with methyltransferase inhibitors 5-Azacytidine (Aza) 200 nM, Decitabine (Dec) 100 nM or DMSO as solvent control. Subsequently, the cells were cultured in the absence of the drugs for 5 days. Pre-treated donor cells were subsequently cocultured with recipient cells as described above to monitor aggregate induction efficiency in recipient N2a NM-GFP^sol cells. Cell lysates of donor cells were also analyzed for MuERV Env and Gag expression levels by western blot. To increase DNA methylation, the s2E donor clone (P21) was treated with methyl group donors L-methionine (L-M) 80 mM, Betaine (B) 80 mM, Choline chloride (CC) 20 mM or medium control for 6 days. MuERV Env and Gag protein levels were analyzed by western blot. Subsequently, cells were cocultured with recipient cells for 16 h. The percentage of aggregate containing recipient cells was compared to the percentage of aggregate bearing recipients cocultured with solvent-treated donors.
Pre-designed siRNAs against murine XPR1 and mCat-1 genes were used to knock-down genes coding for putative receptors. For transfection, 2-4×10^5 cells/well were seeded on 6 well plates. The next day, 30 nM siRNA or plasmid DNA was transfected using Lipofectamine RNAiMAX or Lipofectamine2000 transfection reagent, respectively, according to the manufacturer's instructions (Thermo Fisher Scientific). After 2 days, transfected cells were harvested for aggregate induction assays and qRT-PCR, western blot analysis.
For Western blot analysis, protein concentrations were measured using the Quick Start™ Bradford Protein assay (Bio-Rad). Proteins were separated on NuPAGE®Novex® 4-12 Bis-Tris Protein Gels (Life Technologies) followed by transfer onto a PVDF membrane (GE Healthcare). Western blot analysis was performed using rat hybridoma anti-MuERV Env mAb83A25; anti-xenotropic MuLV virus antibody ABIN457298 for detecting both Env and Gag (antibodies-online); mouse anti-MuERV Gag ab100970 (Abcam); mouse anti-Alix (1:1000; BD Bioscience); rat anti-HA 3F10 (1:1000; Roche); mouse anti-GAPDH 6C5 (1:5000; Abcam); mouse anti-Hsc/Hsp70 N27F3-4 (1:1000; ENZO); mouse anti-VSV-G A5977 (Sigma); rabbit anti-Tau ab64193 (Abcam); mouse anti-HERV K Env HERM-1811-5 (Amsbio); mouse anti-HERV K Gag HERM-1841-5 (Amsbio). The membrane was incubated with Pierce™ ECL Western Blotting Substrate (Thermo Fisher Scientific) according to the manufacturer's recommendations.

[2] = system: N2a NM-GFP^sol cells; assay type: cell-based, mouse; conditions: for percentage of recipient cells with NM-GFP aggregates: compounds added to cocultures 1 h after co-seeding, three concentrations, 12 h
[3] = system: MuERV env and gag mRNA; assay: qRT-PCR of MuERV env and gag transcripts in donor clone s2E; assay type: cell-based, mouse; conditions: for expression of total env and gag mRNA: s2E P1 donors, Aza 200 nM or Dec 100 nM, then 5 days without drug, vs DMSO; for total env and gag mRNA: s2E P21 donors, L-methionine 80 mM, Betaine 80 mM, Choline chloride 20 mM, 6 days, vs medium control
Description: as §1, with “donors. […]” for “donors.”
Total RNA from cell pellets or brain samples was isolated using the RNeasy Mini Kit or RNeasy Lipid Tissue Mini Kit (Qiagen). RNA concentration and quality were determined using the Agilent 2100 Bioanalyzer System. For a 20 μl reaction, 1 μg RNAs were reversely transcribed to cDNA using the iScript™ cDNA Synthesis Kit (Bio-Rad). For a 20 μl qRT-PCR reaction, 2 μl of synthesized cDNA was used as template. For qRT-PCR of murine env AA037244.2 and gag AID54952, custom designed TaqMan probes were used (Thermo Fisher Scientific). Pre-designed TaqMan probes by the company for murine pan-env, xpr1, mcat-1 and gapdh as housekeeping control and TaqMan™ Gene Expression Master Mix (Thermo Fisher Scientific) were used. qRT-PCR using TaqMan probes was performed as described in the manufacturer's instruction. For qRT-PCR analyses of HERV family members, primers were designed using the corresponding cDNA sequences (cf. SEQ ID NOs. 73-92). PowerUP SYBR™ Green Master Mix (Thermo Fisher Scientific) was mixed with different cDNAs and corresponding primers as indicated in the instruction. The fast cycling mode was used for all primers.

[4] = molecular target: T1, HERV-K protease (Homo sapiens, UniProt P10265); conditions: stated as shown previously; cited from earlier work
T1 sequence (P10265 1-156): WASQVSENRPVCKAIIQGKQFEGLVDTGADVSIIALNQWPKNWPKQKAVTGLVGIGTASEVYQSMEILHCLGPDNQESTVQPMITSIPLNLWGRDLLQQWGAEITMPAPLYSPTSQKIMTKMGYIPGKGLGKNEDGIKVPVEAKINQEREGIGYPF

[5] = system: HEK Tau-FRsol cells; assay: Tau-FR aggregate induction by EV from A375 Tau-GFPAD donor cells; assay type: cell-based, human; conditions: EV from donors treated with 10 μM for 3 d; 3 d on recipients in presence of 10 μM; vs DMSO
Description: (§2) Melanoma cell line A375 (Oricchio E, Sciamanna I, Beraldi R, Tolstonog G V, Schumann G G, Spadafora C. 2007. Distinct roles for LINE-1 and HERV-K retroelements in cell proliferation, differentiation and tumor progression. Oncogene 26:4226-4233) was engineered to stably express Tau-GFP and subsequently exposed to AD brain homogenate to induce Tau aggregation. A clone stably propagating Tau-GFPagg was isolated and used for experiments. Donor A375 Tau-GFPAD cells were treated with 10 μM inhibitor Lopinavir to repress HERV-K protease for 3 d before EV were harvested. Donors or donor EV were then cultured with recipient HEK Tau-FRsol cells in the presence of 10 μM Lopinavir or DMSO for 3 d. • b. Quantitative analysis of recipient cells with Tau-FRagg upon coculture with donors. Statistical analysis was performed with unpaired Student's t-test (n=6). • c. Quantitative analysis of recipient cells with induced Tau-FRagg following exposure to donor-derived EV. Statistical analysis was performed with unpaired Student's t-test (n=3). […]
(§3) To inhibit methyltransferase, MCF-7 Tau-GFPAD cells were treated with 2 μM Aza or DMSO for 4 d. […] Afterwards, the total numbers of viable cells and the viability upon drug treatments were determined using the Vi-VELLTMXR Cell Viability Analyzer (Beckman Coulter). […]

[6] = system: HEK Tau-FRsol cells; assay: Tau-FR aggregate induction by coculture with A375 Tau-GFPAD donor cells; assay type: cell-based, human; conditions: donors 10 μM for 3 d; coculture 3 d in presence of 10 μM; vs DMSO
Description: as §2, §3

Q: What does the source list for `Nc1ncn([C@@H]2O[C@H](CO)[C@@H](O)[C@H]2O)c(=O)n1` [5-Azacytidine]?
A: expression of MuERV proteins ([1]; s2E P1 donors, Aza 200 nM or Dec 100 nM, then 5 days without drug, vs DMSO): increased expression; NM aggregate induction in recipient cells cocultured with pretreated donors ([2]; s2E P1 donors pretreated, Aza 200 nM or Dec 100 nM, vs DMSO): significantly increased NM aggregate induction in recipient cells; expression of total env and gag mRNA [3]: increased expression of total env and gag mRNA; expression of total env and gag mRNA ([3]; listed as 5-azacytidine): Increased expression of MuERV env (f), gag (h) and pan-env (g) transcripts

Q: Which results are given for `C[N+](C)(C)CC(=O)O` [Betaine]?
A: MuERV proteins ([1]; s2E P21 donors, L-methionine 80 mM, Betaine 80 mM, Choline chloride 20 mM, 6 days, vs medium control): decreased; NM-GFP aggregate induction when pretreated donors were cocultured with recipient cells ([2]; s2E P21 donors pretreated 6 days, coculture 16 h): decreased NM-GFP aggregate induction; total env and gag mRNA [3]: transcripts decreased; total env and gag mRNA ([3]; listed as betaine): decreased total env and gag mRNA

Q: Which MuERV proteins [1] does the source give for `C[N+](C)(C)CCO.[Cl-]` [Choline chloride] here?
A: Its MuERV proteins is “decreased”.

Q: And the “NM-GFP aggregate induction when pretreated donors were cocultured with recipient cells” value [2]?
A: Its value is “decreased NM-GFP aggregate induction”.

Q: What about the “total env and gag mRNA” value [3] of the same compound?
A: The value was “transcripts decreased”.

Q: And the “total env and gag mRNA” value ([3]; listed as choline chloride)?
A: Its value is “decreased total env and gag mRNA”.

Q: Which MuERV proteins [1] does the source give for `CSCC[C@H](N)C(=O)O` [L-methionine] here?
A: Its MuERV proteins is “decreased”.

Q: What about the “NM-GFP aggregate induction when pretreated donors were cocultured with recipient cells” value [2] of the same compound?
A: Its value is “decreased NM-GFP aggregate induction”.

Q: What about the “total env and gag mRNA” value [3] of the same compound?
A: Its value is “transcripts decreased”.

Q: And the “total env and gag mRNA” value ([3]; listed as 1-methionine)?
A: The value was “decreased total env and gag mRNA”.

Q: With `Cc1cccc(C)c1OCC(=O)N[C@@H](Cc1ccccc1)[C@@H](O)C[C@H](Cc1ccccc1)NC(=O)[C@H](C(C)C)N1CCCNC1=O` [Lopinavir] as the compound, how does the “inhibition of HERV-K protease required for HERV protein maturation” value [4] read?
A: Its value is “inhibit HERV-K protease”.

Q: What about the “Tau aggregate inducing activity of donor-derived EV in recipients” value [5] of the same compound?
A: The value was “reduced Tau aggregate inducing activity in recipients”.

Q: And the “recipient cells with Tau-FRagg upon coculture with donors” value [6]?
A: The value was “significant reduction of recipient cells with aggregates; also recorded: reduces intercellular Tau aggregate spreading; also recorded: reduces intercellular protein aggregate spreading”.

Q: Which “percentage of recipient cells with NM-GFP aggregates” value ([2]; vs DMSO) does the source give for `COC(=O)N[C@H](C(=O)N[C@@H](Cc1ccccc1)[C@@H](O)CN(Cc1ccc(-c2ccccn2)cc1)NC(=O)[C@@H](NC(=O)OC)C(C)(C)C)C(C)(C)C` [atazanavir] here?
A: The value was “reduced the percentage of recipient cells with NM-GFP aggregates”.

Q: What about the “percentage of recipient cells with NM-GFP aggregates” value ([2]; vs DMSO, listed as Atazenavir) of the same compound?
A: The value was “reduce aggregate induction”.
